# Compound: Cc1ccc(Nc2nccc(N(C)c3ccc4c(C)n(C)nc4c3)n2)cc1S(N)(=O)=O [Pazopanib] + CC(=O)c1c(C)c2cnc(Nc3ccc(N4CCNCC4)cn3)nc2n(C2CCCC2)c1=O [Palbociclib] (partner 0.5 µM)
# Experiment: relative viability (nuclei count vs DMSO), 5 days (fraction); higher = more cells survive
# Conditions: first compound 0.1 µM
# Outline: (§1)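 Relative viability was taken as the ratio of nuclei in treated wells to nuclei in vehicle wells. Lung cancer cell lines in 1536-well plates received compounds by pin tool one day after seeding, either one drug alone or a fixed anchor-drug dose plus five library-drug doses (not always all listed) in √10 steps. Nuclei were counted on 4× images after 5 days of treatment, and values are medians of duplicate plates.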
row,Cell Line,relative viability
1,NCI-H727,0.634
2,NCI-H1734,0.353
3,NCI-H520,0.244
4,NCI-H2405,0.535
5,SW 1573,0.454
6,NCI-H1793,0.3
7,201T,0.343
8,NCI-H1915,0.524
9,HCC-827,0.516
10,LXF-289,0.629
11,NCI-H23,0.614
12,NCI-H650,0.355

# Same assay, conditions: first compound 0.3162 µM
row,Cell Line,relative viability
1,NCI-H2342,0.489
2,NCI-H838,0.258
3,NCI-H1650,0.349
4,NCI-H1993,0.517
5,NCI-H2347,0.449
6,PC-14,0.719
7,LCLC-103H,0.439
8,NCI-H2126,0.361
9,EMC-BAC-2,0.511
10,NCI-H2085,0.48
11,HCC-366,0.386
12,NCI-H1666,0.694
13,NCI-H647,0.361
14,LK-2,0.709
15,NCI-H2087,0.271
16,NCI-H1648,0.281
17,NCI-H1395,0.6
18,H3255,0.328
19,COR-L23,0.316
20,COR-L 105,0.437
21,LOU-NH91,0.538
22,ChaGo-K-1,0.927
23,NCI-H358,0.112
24,NCI-H3122,0.189
25,HOP-62,0.493

row,Cell Line,relative viability
1,HCC-44,0.982
2,NCI-H522,0.887
3,LU99A,0.444
4,BEN,0.506
5,HARA,0.254
6,SW 900,0.65
7,HCC-78,0.462
8,NCI-H441,0.211
9,LCLC-97TM1,0.205
10,NCI-H2009,0.271
11,A-427,0.554
12,NCI-H460,0.0783
13,NCI-H727,0.597
14,NCI-H1734,0.378
15,NCI-H520,0.224
16,NCI-H2405,0.519
17,SW 1573,0.367
18,NCI-H1793,0.341
19,201T,0.37
20,NCI-H1915,0.541
21,HCC-827,0.444
22,LXF-289,0.571
23,NCI-H23,0.594
24,NCI-H650,0.337

# Same assay, conditions: first compound 1 µM
row,Cell Line,relative viability
1,NCI-H2342,0.515
2,NCI-H838,0.246
3,NCI-H1650,0.393
4,NCI-H1993,0.616
5,NCI-H2347,0.498
6,PC-14,0.6
7,LCLC-103H,0.5
8,NCI-H2126,0.361
9,EMC-BAC-2,0.492
10,NCI-H2085,0.462
11,HCC-366,0.353
12,NCI-H1666,0.667
13,NCI-H647,0.29
14,LK-2,0.729
15,NCI-H2087,0.256
16,NCI-H1648,0.279
17,NCI-H1395,0.625
18,H3255,0.361
19,COR-L23,0.317
20,COR-L 105,0.438
21,LOU-NH91,0.547
22,ChaGo-K-1,0.873
23,NCI-H358,0.122
24,NCI-H3122,0.241
25,HOP-62,0.46

row,Cell Line,relative viability
1,HCC-44,0.948
2,NCI-H522,0.883
3,LU99A,0.416
4,BEN,0.482
5,HARA,0.295
6,SW 900,0.595
7,HCC-78,0.432
8,NCI-H441,0.273
9,LCLC-97TM1,0.264
10,NCI-H2009,0.258
11,A-427,0.526
12,NCI-H460,0.262
13,NCI-H727,0.718
14,NCI-H1734,0.344
15,NCI-H520,0.188
16,NCI-H2405,0.583
17,SW 1573,0.365
18,NCI-H1793,0.399
19,201T,0.412
20,NCI-H1915,0.536
21,HCC-827,0.471
22,LXF-289,0.598
23,NCI-H23,0.586
24,NCI-H650,0.315

# Compound: Cc1ccc(Nc2nccc(N(C)c3ccc4c(C)n(C)nc4c3)n2)cc1S(N)(=O)=O [Pazopanib] + O=C(c1cc(Cc2n[nH]c(=O)c3ccccc23)ccc1F)N1CCN(C(=O)C2CC2)CC1 [Olaparib] (partner 8 µM)
# Experiment: as above
# Conditions: first compound 0.01 µM
# Outline: as §1
row,Cell Line,relative viability
1,NCI-H2342,0.385
2,NCI-H838,0.745
3,NCI-H1650,0.895
4,EBC-1,0.696
5,NCI-H1703,0.465
6,NCI-H2347,0.541
7,PC-14,0.335
8,LCLC-103H,0.723
9,NCI-H596,0.674
10,NCI-H2126,0.825
11,NCI-H2085,0.821
12,Calu-6,0.601
13,HCC-366,0.31
14,NCI-H1666,0.819
15,NCI-H647,0.717
16,LK-2,0.575

# From the supplement of paper PMC10307832
